Source: US12692257B2, “2,4,6-tri-substituted pyrimidine compounds as ATR kinase inhibitors” (BEIJING TIDE PHARMACEUTICAL CO., LTD., priority 2020, dated 2026)

Key:
TOV21G (ovarian cancer) = assay: Cell proliferation inhibition in vitro, CellTiter-Glo, TOV21G; assay type: cell-based; conditions: Homo sapiens; TOV21G cells, 120 hours, CellTiter-Glo; read-out: TOV21G/IC50/μM
Protocol: (§1) By detecting the effect of compounds on cell activity in vitro in tumor cell lines TOV21G (ovarian cancer) and MV4-11 (leukemia), the inhibitory effect of compounds on cell proliferation was studied in this assay.
(§2) TOV21G cells and MV4-11 cells were purchased from American Type Culture Collection (ATCC).
TOV21G cells were cultured in MCDB105/M199 medium (containing 15% of FBS), and used for assaying when the cell confluence reached 85% or more. About 1000 cells were inoculated in each well of a 96-well culture plate, and cultured for 24 hours. Different concentrations (0-10 μM) of compounds to be assayed were added to treat the cells. Each group was assayed in triplicate. Blank wells (containing medium only) and control wells (inoculated cells without being treated with drug) were set. Cells were cultured for 120 hours. 40 μL of Cell Titer-Glo solutions (Promega, #G7573) were added to each well, and the cells were incubated with shaking for 20 min in the dark. 100 μL of solution was transferred from each well to a 96-well blank plate (Corning, #3917), and the luminescence value was read by Biotek Synergy H1 multifunctional microplate reader.

ATR kinase = ATR kinase (Homo sapiens, UniProt Q13535); assay: Assay of ATR kinase activity (time-resolved fluorescence, phosphorylation of p53-derived protein); assay type: biochemical
Protocol: Biotinylated protein derived from p53 (Eurofins, art. No.: 14-952) was phosphorylated with ATR kinase. The amount of phosphorylated protein was determined by time-resolved fluorescence in this assay. The amount of phosphorylated protein was detected by anti-p53-phospho-(serine 15)-K-specific antibody (Cisbio, art. No.: 61GSTDLA) and d2 labeled anti-GST antibody (Cisbio, art. No. 61P08KAE). Before the assay, the following working solutions were formulated as required: 1×reaction buffer (20 mM HEPES PH8.0, 1% glycerol, 0.01% Brij-35), dilution buffer (20 mM HEPES PH8.0, 1% glycerol, 0.01% Brij-35, 5 mM DTT and 1% BSA), stop solution (20 mM HEPES PH8.0, 1% glycerol, 0.01% Brij-35, 250 mM EDTA), detection buffer (50 mM HEPES pH7.0, 150 mM NaCl, 267 mM KF, 0.1% sodium cholate, 0.01% Tween-20, 0.0125% sodium azide). The reagents used above were purchased from Sigma or Invitrogen, except for those whose manufacturers were mentioned.
Operations were as follows:
4× serially diluted compound solutions were prepared with 1× reaction buffer to give 9 compound solutions with different concentrations, and 2.5 μL of the 4× serially diluted compound solutions were added to a 384-well analysis plate (784075, Greiner). 4×p53 substrate working solution (40 nM) was prepared with 1× reaction buffer, and 2.5 μL of the 4×p53 substrate working solution was added to a 384-well analysis plate. 4×ATR/ATRIP working solution (12.8 ng/μL) was prepared with dilution buffer, and 2.5 μL of the 4×pATR/ATRIP working solution was added to a 384-well analysis plate. 4×ATP working solution (2 mM) was prepared with deionized water, and 2.5 μL of the 4×ATP working solution was added to a 384-well analysis plate. The plates were incubated at room temperature in dark for 30 minutes. 5 μL of stop solution was added to the 384 analysis plates. Finally, 5 μL of assay mixture (0.084 ng/μL Anti-phospho-p53(ser15)-K and 5 ng/μL Anti-GST-d2) was added to the 384 well analysis plates, and incubated at room temperature overnight. The fluorescence signal was detected with ENVISION (Perkinelmer) instrument (excitation wavelength: 320 nm, emission wavelength: 665 nm and 615 nm). The inhibition rate in each well was calculated by the fluorescence intensity value in each well:ER (Emission Ratio)=(Fluorescence intensity at 665 nm/Fluorescence intensity at 615 nm); inhibition rate=(ER of positive−ER of assay compound)/(ER of positive−ER of negative)×100%. IC50 values of compounds were calculated by standard software for parameter fitting (GraphPad Prism 6.0).

[1] = In vitro stability in mouse liver microsome; assay type: in vitro ADME; conditions: liver microsomes, read-out: Mouse liver microsome t1/2
Source text: (§3) Based on the in vitro activity results, representative compounds were selected for assay studies on the stability in liver microsome, and the results were as follows.

[2] = In vitro stability in human liver microsome; assay type: in vitro ADME; conditions: liver microsomes, read-out: Human liver microsome t1/2
Source text: as §3

[3] = In vivo oral administration pharmacokinetics in mice; parameters: AUC: concentration or dose not given beside the values; conditions: mouse
Source text: Based on the in vitro activity results, representative compounds were selected for in vivo pharmacokinetic studies.
In Vivo Oral Administration—Pharmacokinetic Results in Mice: […]

MV4-11 (leukemia) = assay: Cell proliferation inhibition in vitro, CellTiter-Glo, MV4-11; assay type: cell-based; conditions: Homo sapiens; MV4-11 cells, 120 hours, CellTiter-Glo; read-out: MV4-11/IC50/μM
Protocol: as §1, §2
MV-4-11 cells were cultured in IMDM medium (containing 20% of FBS). About 10,000 cells were inoculated in each well of a 96-well culture plate, and treated by adding different concentrations (0-10 μM) of compounds to be assayed. Each group was assayed in triplicate. Blank wells (containing medium only) and control wells (inoculated cells without being treated with drug) were set. Cells were cultured for 120 hours. 40 μL of Cell Titer-Glo solutions were added to each well, and the cells were incubated with shaking for 20 min in the dark. 100 μL of solution was transferred from each well to a 96-well blank plate, and the luminescence value was read by Biotek Synergy HI multifunctional microplate reader. Inhibition rate (%)=100%×(control well−assay well)/(control well−blank well)

DNA-PK = DNA-PK (Homo sapiens, UniProt P78527); assay: Kinase selectivity: inhibitory activity against DNA-PK; assay type: biochemical; conditions: 10 concentrations, 10 μM to 0.51 nM; read-out: IC50/DNAPK
Protocol: (§4) The compound of the present disclosure was assayed for inhibition of the same family (ATM, DNA-PK and mTOR):
(§5) According to the assay method reported in the literature, the compound to be assayed was serially diluted 3-fold to 0.51 nM starting from 10 μM (a total of 10 concentrations), and assayed for the inhibitory activities against kinases ATM^1, DNA-PK^2 and mTOR^3, respectively.

mTOR = mTOR (Homo sapiens, UniProt P42345); assay: Kinase selectivity: inhibitory activity against mTOR; assay type: biochemical; conditions: 10 concentrations, 10 μM to 0.51 nM
Protocol: as §4, §5

ATM = ATM (Homo sapiens, UniProt Q13315); assay: Kinase selectivity: inhibitory activity against ATM; assay type: biochemical; conditions: 10 concentrations, 10 μM to 0.51 nM
Protocol: as §4, §5

Chain of ATR kinase (Q13535 whole entry): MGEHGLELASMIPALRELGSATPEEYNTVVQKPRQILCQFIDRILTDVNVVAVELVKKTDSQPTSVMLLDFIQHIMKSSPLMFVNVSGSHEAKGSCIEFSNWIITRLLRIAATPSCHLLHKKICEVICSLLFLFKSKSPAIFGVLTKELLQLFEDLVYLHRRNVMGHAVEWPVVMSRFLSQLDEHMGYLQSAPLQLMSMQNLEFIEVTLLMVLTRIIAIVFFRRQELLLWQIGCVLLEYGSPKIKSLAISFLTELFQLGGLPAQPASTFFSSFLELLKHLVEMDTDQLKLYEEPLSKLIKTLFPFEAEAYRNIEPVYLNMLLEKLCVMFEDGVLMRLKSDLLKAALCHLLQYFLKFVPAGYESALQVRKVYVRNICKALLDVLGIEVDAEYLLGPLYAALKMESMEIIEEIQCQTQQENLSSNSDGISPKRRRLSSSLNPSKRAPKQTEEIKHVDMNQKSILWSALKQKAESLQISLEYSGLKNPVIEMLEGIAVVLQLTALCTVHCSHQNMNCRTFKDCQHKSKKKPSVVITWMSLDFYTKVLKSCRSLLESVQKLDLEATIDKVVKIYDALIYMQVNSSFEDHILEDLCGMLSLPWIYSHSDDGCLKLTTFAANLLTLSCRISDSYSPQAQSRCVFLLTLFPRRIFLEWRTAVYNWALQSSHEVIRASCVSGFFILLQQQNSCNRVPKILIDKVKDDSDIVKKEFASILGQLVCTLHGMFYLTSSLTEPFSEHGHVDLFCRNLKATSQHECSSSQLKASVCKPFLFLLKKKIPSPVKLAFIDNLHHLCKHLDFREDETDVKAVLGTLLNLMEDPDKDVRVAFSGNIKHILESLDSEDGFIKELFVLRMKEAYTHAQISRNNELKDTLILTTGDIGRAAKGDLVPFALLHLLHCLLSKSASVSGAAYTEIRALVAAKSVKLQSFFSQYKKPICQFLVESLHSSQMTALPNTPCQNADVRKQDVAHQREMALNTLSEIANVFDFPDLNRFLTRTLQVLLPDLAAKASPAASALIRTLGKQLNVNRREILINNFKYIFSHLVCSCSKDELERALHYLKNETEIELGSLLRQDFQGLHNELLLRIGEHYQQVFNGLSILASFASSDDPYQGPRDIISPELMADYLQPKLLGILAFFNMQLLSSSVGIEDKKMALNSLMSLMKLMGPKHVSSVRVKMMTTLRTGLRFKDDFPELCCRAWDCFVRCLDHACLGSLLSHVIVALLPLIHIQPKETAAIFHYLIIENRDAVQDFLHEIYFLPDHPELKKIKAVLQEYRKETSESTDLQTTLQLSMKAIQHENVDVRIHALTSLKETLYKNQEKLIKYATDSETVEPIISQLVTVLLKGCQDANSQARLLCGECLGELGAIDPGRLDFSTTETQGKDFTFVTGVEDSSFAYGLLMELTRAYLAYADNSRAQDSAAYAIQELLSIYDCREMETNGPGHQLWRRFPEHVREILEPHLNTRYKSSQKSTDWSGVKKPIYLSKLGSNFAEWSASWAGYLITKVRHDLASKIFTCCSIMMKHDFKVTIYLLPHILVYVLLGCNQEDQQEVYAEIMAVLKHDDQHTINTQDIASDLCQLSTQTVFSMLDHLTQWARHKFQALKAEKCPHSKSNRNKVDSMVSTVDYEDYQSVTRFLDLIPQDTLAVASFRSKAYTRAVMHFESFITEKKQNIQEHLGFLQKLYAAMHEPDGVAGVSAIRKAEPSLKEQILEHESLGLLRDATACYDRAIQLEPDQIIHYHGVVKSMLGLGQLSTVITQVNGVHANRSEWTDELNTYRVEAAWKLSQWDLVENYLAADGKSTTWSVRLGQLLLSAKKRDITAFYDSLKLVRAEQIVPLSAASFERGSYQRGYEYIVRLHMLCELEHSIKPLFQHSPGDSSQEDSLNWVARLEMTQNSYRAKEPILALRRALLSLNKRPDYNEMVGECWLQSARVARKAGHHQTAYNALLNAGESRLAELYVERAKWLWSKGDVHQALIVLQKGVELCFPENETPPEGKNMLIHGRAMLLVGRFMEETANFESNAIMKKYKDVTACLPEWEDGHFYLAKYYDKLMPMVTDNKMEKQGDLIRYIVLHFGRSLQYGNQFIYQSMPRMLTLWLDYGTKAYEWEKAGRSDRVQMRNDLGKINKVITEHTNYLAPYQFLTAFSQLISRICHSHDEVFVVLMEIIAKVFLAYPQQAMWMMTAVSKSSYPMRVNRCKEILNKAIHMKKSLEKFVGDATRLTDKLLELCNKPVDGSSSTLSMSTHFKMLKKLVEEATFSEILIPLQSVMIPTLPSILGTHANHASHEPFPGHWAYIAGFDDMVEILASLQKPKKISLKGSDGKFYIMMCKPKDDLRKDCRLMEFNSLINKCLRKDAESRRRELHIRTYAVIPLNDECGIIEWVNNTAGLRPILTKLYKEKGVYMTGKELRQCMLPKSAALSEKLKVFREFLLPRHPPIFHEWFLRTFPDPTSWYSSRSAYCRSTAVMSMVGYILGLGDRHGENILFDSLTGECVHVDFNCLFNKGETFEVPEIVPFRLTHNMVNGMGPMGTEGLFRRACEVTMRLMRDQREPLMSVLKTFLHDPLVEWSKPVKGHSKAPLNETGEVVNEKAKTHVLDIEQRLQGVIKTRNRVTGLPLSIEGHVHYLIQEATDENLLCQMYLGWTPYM
Chain of ATR kinase (Q8WXE1 whole entry partner): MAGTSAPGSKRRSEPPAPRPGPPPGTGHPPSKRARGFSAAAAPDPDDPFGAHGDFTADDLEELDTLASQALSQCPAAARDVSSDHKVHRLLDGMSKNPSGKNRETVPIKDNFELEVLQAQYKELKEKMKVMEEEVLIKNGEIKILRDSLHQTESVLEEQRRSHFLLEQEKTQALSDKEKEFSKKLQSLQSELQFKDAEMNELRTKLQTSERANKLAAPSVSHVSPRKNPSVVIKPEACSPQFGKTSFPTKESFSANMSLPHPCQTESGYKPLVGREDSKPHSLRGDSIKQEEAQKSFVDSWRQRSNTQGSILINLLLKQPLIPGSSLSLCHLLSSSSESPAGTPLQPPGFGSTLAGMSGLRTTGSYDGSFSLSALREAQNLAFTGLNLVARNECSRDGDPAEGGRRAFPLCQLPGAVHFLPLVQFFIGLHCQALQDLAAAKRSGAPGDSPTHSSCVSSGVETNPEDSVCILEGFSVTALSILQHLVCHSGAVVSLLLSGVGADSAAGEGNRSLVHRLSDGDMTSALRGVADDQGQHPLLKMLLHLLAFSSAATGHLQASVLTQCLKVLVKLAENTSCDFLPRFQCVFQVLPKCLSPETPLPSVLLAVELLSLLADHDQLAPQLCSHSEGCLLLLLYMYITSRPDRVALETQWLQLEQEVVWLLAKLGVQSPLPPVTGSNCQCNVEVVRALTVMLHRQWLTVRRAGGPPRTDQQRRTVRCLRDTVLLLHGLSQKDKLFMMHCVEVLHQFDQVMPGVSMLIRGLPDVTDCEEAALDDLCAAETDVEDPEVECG

IC50 (TOV21G (ovarian cancer))	IC50 (ATR kinase)	half-life [1]	half-life [2]	AUC [3]	Cmax [3]	Tmax [3]	half-life [3]	IC50 (MV4-11 (leukemia))	IC50 (DNA-PK)	IC50 (mTOR)	IC50 (ATM)	Compound
0.291 µM	10 nM	2.23 h	0.733 h	15200 ng·h/mL	1470 ng/mL	3.3 h	3 h	0.214 µM	–	–	–	Cc1nn(-c2cncc(F)c2)c(C)c1-c1cc(N2CCOC[C@H]2C)nc(-c2cc(F)cc3[nH]ccc23)n1 [Compound A11]
0.196 µM	5 nM	1.02 h	1.08 h	8210 ng·h/mL	815 ng/mL	1.75 h	2.3 h	0.19 µM	–	–	–	Cc1nn(-c2cncc(F)c2)c(C)c1-c1cc(N2CCOC[C@H]2C)nc(-c2cccc3[nH]ccc23)n1 [Compound A17]
0.237 µM	2 nM	–	–	1730 ng·h/mL	331 ng/mL	1 h	2.4 h	0.312 µM	–	–	–	Cc1nn(-c2cncc(F)c2)c(C)c1-c1cc(N2CCOC[C@H]2C)nc(-c2ccnc3[nH]ccc23)n1 [Compound A19]
0.457 µM	5 nM	–	–	1200 ng·h/mL	865 ng/mL	0.33 h	1.4 h	0.169 µM	284 nM	1160 nM	2590 nM	Cc1nn(-c2cncc(F)c2)c(C)c1-c1cc(N2CCOC[C@H]2C)nc(-c2cc(CO)cc3[nH]ccc23)n1 [Compound A22]
0.194 µM	11 nM	–	–	8750 ng·h/mL	1450 ng/mL	2.8 h	4.3 h	0.231 µM	–	–	–	CNc1nc2ccccc2n1-c1nc(-c2c(C)nn(-c3cncc(F)c3)c2C)cc(N2CCOC[C@H]2C)n1 [Compound B1]
0.667 µM	16 nM	–	–	–	–	–	–	0.632 µM	–	–	–	Cc1nn(-c2cncc(F)c2)c(C)c1-c1cc(C23CCOCC2C3)nc(-c2cccc3[nH]ccc23)n1 (stereo not drawn) [Compound C3]
